The subject of series [1] is Molt-4, SK-28, LNCaP and MCF7 cells. Briefly: CellTiter 96 cytotoxicity across the four transformed cell lines. The class given is cell-based, human. The note with it: 0.5-3 mM, 24 hours. How it is done:
(§1) All cell lines were purchased from ATCC (Rockville, Md.). […] JA and MJ were dissolved in ethanol.
Results are presented as means ± standard deviation.

In series [2] the test system is MCF7 human breast carcinoma cell line. Briefly: CellTiter 96 Aqueous Non-Radioactive Cell Proliferation Assay (MTS cytotoxicity), MCF7. The class given is cell-based. The note with it: MCF7 cells, 0.5-3 mM tested, 24 hours. How it is done:
as §1

The subject of the next series is MCF7 cells. Briefly: Trypan blue exclusion (cell death versus suppression of proliferation), MCF7. The class given is cell-based, human. The text has this:
(§2) Since the same number of cells was aliquoted into each well initially, decreased optical density as measured in wells containing treated cells (above) reflects cellular death and/or decrease in the rate of proliferation. To distinguish between these two possibilities we employed an additional cytotoxicity assay which detects cell death by lack of trypan blue exclusion.

Series [3] relates to Molt-4 human T lymphoblastic leukemia cell line. Briefly: CellTiter 96 Aqueous Non-Radioactive Cell Proliferation Assay (MTS cytotoxicity), Molt-4. The settings on record: Molt-4 cells, 24 hours.
Procedure: All cell lines were purchased from ATCC (Rockville, Md.). All reagents were purchased from Sigma Chemicals (St. Louis, Mo.) unless otherwise stated. JA and MJ were dissolved in ethanol.
LNCaP, MCF7 and SK-28 cells (at 4×10^3/well) and Molt-4 cells (at 1.5×10^4/well) were seeded in 96-well plates and allowed to adhere overnight. Plant stress hormone at increasing concentrations was added as indicated below, and toxicity was measured after 24 hours using the CellTiter 96 Aqueous Non-Radioactive Cell Proliferation Assay (Promega, Madison, Wis.); an assay in which viable cells produce a colored product (for details on the protocol of this assay, see below). This assay is quantitative, as the amount of color produced is read using an ELISA reader.
Each cell line was incubated with each of these hormones at a concentration ranging from 0.5-3 mM for 24 hours, after which cytotoxicity was measured. The statistical significance of the results was determined (where appropriate) by two-tailed student's t-test, n=3.
This allowed for development of a color reaction in which dehydrogenases reduce the MTS in metabolically active cells. Since the cells were not washed before the addition of MTS, there were no potentially loosely adherent or non-adherent cells that could have been problematic. Soluble MTS formazan product was measured at a wavelength of 490 nm using a CERES 900 HDI ELISA reader (Bio-Tek Instruments, Inc, Highland Park, Vt.). Optical density is directly proportional to the number of living cells in culture. Cytotoxicity (%) was calculated in the following way: [(OD of control cells−OD of drug-treated cells)/OD of control cells]×100.
Normal lymphocytes and Molt-4 cells were seeded (at 1.5×10^4/well) in 96-well plates.
Jasmonates or salicylic acid were added at a concentration of 1 mM or 3 mM, and cells were incubated for 24 hours. Optical density representing viable cells was determined by the CellTiter 96 Aqueous Non-Radioactive Cell Proliferation Assay.
For series [4], the system named is LNCaP androgen-responsive human prostate adenocarcinoma cell line. Briefly: CellTiter 96 Aqueous Non-Radioactive Cell Proliferation Assay (MTS cytotoxicity), LNCaP. The settings on record: LNCaP cells, 0.5-3 mM tested, 24 hours. The class given is cell-based. How it is done: as §1
For series [5], the system named is Caspase-3 activity in Molt-4 cells. Briefly: Caspase-3 (CPP32) protease assay in treated Molt-4 cells. The settings on record: for Caspase-3 activity: all concentrations and times (2, 4, 14 hours), P<0.05. Type of series: cell-based, human. How it is done:
Elevated levels of Caspase-3 are a specific marker of the apoptosis process (Porter and Janicke, Cell Death Differ., 6, 99-104, 1999). In order to definitively determine that the cause of cell death was apoptosis, the level of Caspase-3 activity was measured in cells after treatment with JA and MJ. […] Briefly, 2×10^6 cells were lysed and resuspended in 100 μL of reaction buffer containing a fluorogenic Caspase-3 (CPP32) substrate Ac-DEVD-AMC. Reactions were incubated at 37° C. for 2 hours and samples were assayed at excitation wavelength of 360 nm and emission wavelength of 460 nm, in the FL600 Microplate Fluorescence Reader (Bio-Tek Instruments, Winooski, Vt., USA).

The subject of series [6] is normal lymphocytes from peripheral blood of healthy donors. Briefly: CellTiter 96 cytotoxicity on normal lymphocytes stimulated by TPA/PHA. The note with it: 1 mM or 3 mM, 24 hours. Type of series: cell-based, human. The text has this:
Normal lymphocytes were separated from peripheral blood, as follows: Mononuclear cells (MNC) from venous blood of healthy donors were collected by Ficoll-Hypaque (Phamacia Fine Chemicals, Uppsala, Sweden) density gradient centrifugation. The resultant mononuclear cell preparation was allowed to adhere to plastic dishes to remove contaminant macrophages. The non-adherent peripheral blood lymphocytes were selected for use.

Series [7] deals with SK-28 human melanoma cells. Briefly: CellTiter 96 Aqueous Non-Radioactive Cell Proliferation Assay (MTS cytotoxicity), SK-28. The class given is cell-based. The note with it: SK28 cells, 0.5-3 mM tested, 24 hours. How it is done: as §1
Series [8] has as its system Molt-4 cells. Description: Trypan blue exclusion (cell death versus suppression of proliferation), Molt-4. Type of series: cell-based, human.
Excerpt: as §2

For a further series, the system named is SK28 cells. Briefly: Trypan blue exclusion (cell death versus suppression of proliferation), SK28. The class given is cell-based, human.
Excerpt: as §2

A further series has as its system LNCaP cells. Briefly: Trypan blue exclusion (cell death versus suppression of proliferation), LNCaP. The class given is cell-based, human.
Excerpt: as §2

Series [9] relates to Molt-4 cells. Briefly: Fluorescence microscopy (DAPI) of nuclear morphology in Molt-4 cells. The class given is cell-based, human. How it is done:
To confirm this fact, Molt-4 cells were treated with JA (2 mM) and MJ (0.5 mM) for 14 hours, and analyzed by fluorescence microscopy in order to detect essential morphological characteristics of apoptosis such as condensation and fragmentation of chromatin.
Referring to FIG. 3, fluorescence microscopy pictures are shown depicting changes in cellular morphology within the nuclei of Molt-4 cells, after treatment with plant stress hormones JA or MJ. 5×10^5 cells/sample were harvested, then fixated by addition of a solution of phosphate-buffered saline (PBS) containing [3% paraformaldehyde and 0.1% Triton X-100], for one hour. Cells were stained for 10 minutes with DAPI (1 μg/ml). Nuclei were analyzed by fluorescence microscopy, (using a fluorescence microscope model. A×70 TRF, made by Olympus Optical, Japan) at a magnification of 1:400. Characteristic apoptotic nuclei are marked with arrows.

The next series concerns EL-4 lymphoma cells. Description: EL-4 lymphoma model in mice, survival. The class given is in vivo, mice (strain C57BL). How it is done: Syngeneic lymphoma cells were injected into a test group and a control group of mice (strain C57BL). The injections were administered either sub-cutaneously, or intra-peritoneally. Methyl jasmonate was administered orally, by injection directly into the resultant tumor or into the peritoneum, and the effect on tumor progression and on the rate of survival, were analyzed.
400,000 EL-4 lymphoma cells were injected intra-peritoneally into 20 test mice, or 19 control mice, of the C57BL strain.
Preliminary experiments had shown that methyl jasmonate at a dosage of 236-472 mg/kg. body weight was appropriate for prevention of tumoral growth. Therefore, methyl jasmonate was dissolved in a lipid carrier (0.4% Lipofundin, manufactured by B. Brown, Melsunger, Germany) and administered orally at a dosage of 236 mg/kg body weight. Administration was daily, via the drinking water, beginning with the day of injection of the lymphoma cells.
19 control mice received the lipid carrier only (0.4% Lipofundin), with no methyl jasmonate dissolved within.
The survival time of each group of mice was measured (in days), and analyzed.
Each of these tests weighs numerically the importance of a death within one of the two groups of mice, on a given day, compared to the number of surviving mice in the whole.

The structures appear in SMILES notation. “And” between values parts separate entries of the source, which are not always exact repeats. Identical values can stand only once. A value given as a limit tells only on which side of the number the result lay.

As for `CC/C=C\C[C@H]1C(=O)CC[C@@H]1CC(=O)O` [JA, Jasmonic acid], the “Order of sensitivity of the cell lines” value in [1] is “Molt-4>SK-28>LNCaP>MCF7”. The “Concentrations at which cytotoxicity was significant, P<0.05” value in series [2] is 3000 µM; in [3] (0.5-3 mM tested), at least 1000 µM; in series [4], at least 2000 µM; in [7], at least 2000 µM. The “Kind of damage (cell death or inhibition of cell proliferation)” value in the series on MCF7 cells is recorded as “inhibition of cell proliferation”; with Molt-4 cells [8], “cell death”; in the series on SK28 cells, “inhibition of cell proliferation”; in the series on LNCaP cells it was “inhibition of cell proliferation”. In series [3] (3 mM), the Cytotoxicity is on record as 90%. Also, the Caspase-3 activity entry in series [5] is recorded as “increased Caspase-3 activity significantly”. Besides, in series [5] (incubation for 2 hours), the “Level of Caspase-3” value is “didn't induce an elevation”. The “Cytotoxicity in normal lymphocytes” value in series [6] is “do not harm normal cells”. The “Nuclear morphology (apoptotic changes)” value in the series on Molt-4 cells [9] (2 mM for 14 hours) was “induced condensation and fragmentation of chromatin”.
For `CC/C=C\CC1C(=O)CCC1CC(=O)OC` (stereo not shown) [MJ, methyl jasmonate], the “Order of sensitivity of the cell lines” value in [1] is “Molt-4>LNCaP>SK28>MCF7”. The “Concentrations at which cytotoxicity was significant, P<0.01” value was 3000 µM in series [2] and “all concentrations” in [3] (0.5-3 mM tested). Moreover, the “Plateau of survival (cumulative percentage of survival)” value in the series with EL-4 lymphoma cells (C57BL mice, EL-4 cells i.p., 236 mg/kg orally daily via drinking water, reached on the 33rd day, control 20%, p=0.01492 Log-Rank, p=0.00953 Cox-Mantel) came out at 50%. The “Dosage appropriate for prevention of tumoral growth” value in the series with EL-4 lymphoma cells (preliminary experiments in mice) is on record as 236-472 mg/kg. body weight. Besides, the “Kind of damage (cell death or inhibition of cell proliferation)” value in the series with MCF7 cells, in the series with Molt-4 cells [8], with SK28 cells and in the series with LNCaP cells was “death” each time. Further, the Cytotoxicity in [3] (0.5 mM) is 87.52% and 90%. In addition, the “Concentrations at which cytotoxicity was significant, P<0.05” value in series [4] and in series [7] was at least 2000 µM in each case. In addition, in series [5], the Caspase-3 activity result is “increased Caspase-3 activity significantly”. Besides, the “Cytotoxicity in normal lymphocytes” value in series [6] is “do not harm normal cells”. Moreover, the “Nuclear morphology (apoptotic changes)” value in the series on Molt-4 cells [9] (0.5 mM for 14 hours) is “completely destroyed nuclear morphology in almost all cells”.
On to `O=C([O-])c1ccccc1O.[Na+]` [SA, Sodium salicylate, reference compound], for which the “Kind of damage (cell death or inhibition of cell proliferation)” value with MCF7 cells, in the series with Molt-4 cells [8], with SK28 cells and in the series with LNCaP cells was “inhibition of cell proliferation” in each case. The “Concentrations at which cytotoxicity was significant, P<0.05” value in [3] (0.5-3 mM tested) is “all concentrations”.
